Each molecule was assayed on MDA-MB-231 cells (assay: Extracellular lactate production inhibition after 4 h, MDA-MB-231). Conditions: Homo sapiens, MDA-MB-231.
Experimental: Extracellular Lactate Production Inhibition after 4 h
Cells were plated in growth media supplemented with 10% FBS, followed by overnight recovery at 37° C., 5% CO2. […] Plates were then moved for 4 h incubation at 37° C., 5% CO2 with subsequent 20 μl media transfer to empty 384-well transparent plates. […] Plates were short-spun and measured kinetically in absorbance mode (530 nm, 12 min measurement time with 2-minute intervals between subsequent readouts at 30° C.). Differences in the signal between T8 min and T0min were normalized to vehicle (cells w/ 0.25% DMSO) and quasi-positive (LCIS buffer w/ 0.25% DMSO) controls and plotted against logarithmically-transformed test compound concentrations with fitting the 4-parameter model in GraphPad Prism software.

| Structure (SMILES) | IC50 [nM] |
| --- | --- |
| CCOc1ccc(S(=O)(=O)Nc2ccccc2C#Cc2ccc(C(=O)O)nc2)cc1NC(C)=O [Compound 300, 5-{2-[2-(3-acetamido-4-ethoxy-benzenesulfonamido)phenyl]ethynyl}-pyridine-2-carboxylic acid] | 100 to 1000 |
| O=C(O)c1ccc(C#Cc2ccccc2NS(=O)(=O)c2ccc3c(c2)oc2ccccc23)cn1 [Compound 301, 5-[2-(2-{8-oxatricyclo[7.4.0.0^2,7]trideca-1(9),2(7),3,5,10,12-hexaene-5-sulfonamido}phenyl)ethynyl]pyridine-2-carboxylic acid] | 100 to 1000 |
| Cc1c(C)c(S(=O)(=O)Nc2ccccc2C#Cc2ccc(C(=O)O)nc2)c2ncccc2c1C [Compound 305, 5-{2-[2-(5,6,7-trimethylquinoline-8-sulfonamido)phenyl]ethynyl}pyridine-2-carboxylic acid] | 10 to 100 |
| Cc1cc(C#Cc2cc(F)ccc2NS(=O)(=O)c2c(C)ccc3cccnc23)cnc1C(=O)O [Compound 307, 5-{2-[5-fluoro-2-(7-methylquinoline-8-sulfonamido)phenyl]ethynyl}-3-methylpyridine-2-carboxylic acid] | 10 to 100 |
| Cc1cc(C#Cc2cc(F)ccc2NS(=O)(=O)c2ccc(-c3ccccc3)cc2)cnc1C(=O)O [Compound 308, 5-[2-(2-{[1,1′-biphenyl]-4-sulfonamido}-5-fluorophenyl)ethynyl]-3-methylpyridine-2-carboxylic acid] | 100 to 1000 |
| Cc1cc(C#Cc2cc(F)ccc2NS(=O)(=O)c2ccc3c(c2)oc2ccccc23)cnc1C(=O)O [Compound 309, 5-[2-(5-fluoro-2-{8-oxatricyclo[7.4.0.0^2,7]trideca-1(9),2(7),3,5,10,12-hexaene-5-sulfonamido}phenyl)ethynyl]-3-methylpyridine-2-carboxylic acid] | 100 to 1000 |
| Cc1ccc2c(C)ccnc2c1S(=O)(=O)Nc1ccccc1C#Cc1ccc(C(=O)O)nc1 [Compound 310, 5-{2-[2-(4,7-dimethylquinoline-8-sulfonamido)phenyl]ethynyl}pyridine-2-carboxylic acid] | 10 to 100 |
| COc1ccc(S(=O)(=O)Nc2ccc(F)cc2C#Cc2cnc(C(=O)O)c(C)c2)c2ncccc12 [Compound 311, 5-{2-[5-fluoro-2-(5-methoxyquinoline-8-sulfonamido)phenyl]ethynyl}-3-methylpyridine-2-carboxylic acid] | 100 to 1000 |
| COC(=O)c1ncc(C#Cc2cc(F)ccc2NS(=O)(=O)c2c(C)ccc3cccnc23)cc1C [Compound 312, methyl 5-{2-[5-fluoro-2-(7-methylquinoline-8-sulfonamido)phenyl]ethynyl}-3-methylpyridine-2-carboxylate] | 1000 to 100000 |
| COC(=O)c1ncc(C#Cc2cc(F)ccc2NS(=O)(=O)c2ccc(-c3ccccc3)cc2)cc1C [Compound 313, methyl 5-[2-(2-{[1,1′-biphenyl]-4-sulfonamido}-5-fluorophenyl)ethynyl]-3-methylpyridine-2-carboxylate] | 1000 to 100000 |
| COC(=O)c1ncc(C#Cc2cc(F)ccc2NS(=O)(=O)c2ccc(OC)c3cccnc23)cc1C [Compound 316, methyl 5-{2-[5-fluoro-2-(5-methoxyquinoline-8-sulfonamido)phenyl]ethynyl}-3-methylpyridine-2-carboxylate] | 1000 to 100000 |
| COC(=O)c1ncc(C#Cc2cc(F)ccc2NS(=O)(=O)c2ccc3c(c2)oc2ccccc23)cc1C [Compound 318, methyl 5-[2-(5-fluoro-2-{8-oxatricyclo[7.4.0.0^2,7]trideca-1(9),2(7),3,5,10,12-hexaene-5-sulfonamido}phenyl)ethynyl]-3-methylpyridine-2-carboxylate] | 1000 to 100000 |
| COC(=O)c1ncc(C#Cc2cc(F)ccc2NS(=O)(=O)c2cccc(OC)c2)cc1C [Compound 321, methyl 5-{2-[5-fluoro-2-(3-methoxy-benzenesulfonamido)phenyl]ethynyl}-3-methylpyridine-2-carboxylate] | 1000 to 100000 |
| COc1cccc(S(=O)(=O)Nc2ccc(F)cc2C#Cc2cnc(C(=O)O)c(C)c2)c1 [Compound 322, 5-{2-[5-fluoro-2-(3-methoxybenzene-sulfonamido)phenyl]ethynyl}-3-methylpyridine-2-carboxylic acid] | 1000 to 100000 |
| O=C(O)c1ncc(C#Cc2ccccc2NS(=O)(=O)c2cccc3c(Cl)ccnc23)cc1Cl [Compound 323, 3-chloro-5-{2-[2-(4-chloroquinoline-8-sulfonamido)phenyl]ethynyl}pyridine-2-carboxylic acid] | 1000 to 100000 |
| COc1ccnc2c(S(=O)(=O)Nc3ccccc3C#Cc3ccc(C(=O)O)nc3)cccc12 [Compound 324, 5-{2-[2-(4-methoxyquinoline-8-sulfonamido)phenyl]ethynyl}pyridine-2-carboxylic acid] | 100 to 1000 |
| COc1ccc(S(=O)(=O)Nc2cc(F)c(Br)cc2C#Cc2ccc(C(=O)O)nc2)c2ncccc12 [Compound 325, 5-{2-[5-bromo-4-fluoro-2-(5-methoxy-quinoline-8-sulfonamido)phenyl]-ethynyl}pyridine-2-carboxylic acid] | 1 to 10 |

More lines, now with the values ahead:

| IC50 [nM] | Structure (SMILES) |
| --- | --- |
| 10 to 100 | O=C(O)c1ccc(C#Cc2ccccc2NS(=O)(=O)c2c(Cl)ccc3c(Cl)ccnc23)cn1 [Compound 302, 5-{2-[2-(4,7-dichloroquinoline-8-sulfonamido)phenyl]ethynyl}pyridine-2-carboxylic acid] |
| 100 to 1000 | Cn1ccc2c(S(=O)(=O)Nc3ccccc3C#Cc3ccc(C(=O)O)nc3)cccc21 [Compound 303, 5-{2-[2-(1-methyl-1H-indole-4-sulfonamido)phenyl]ethynyl}pyridine-2-carboxylic acid] |
| 1000 to 100000 | O=C(O)c1ccc(C#Cc2ccccc2NS(=O)(=O)c2ccc(Cl)s2)cn1 [Compound 304, 5-{2-[2-(5-chlorothiophene-2-sulfonamido)phenyl]ethynyl}pyridine-2-carboxylic acid] |
| 10 to 100 | O=C(O)c1ccc(C#Cc2ccccc2NS(=O)(=O)c2c(Cl)cc(Cl)c3cccnc23)cn1 [Compound 306, 5-{2-[2-(5,7-dichloroquinoline-8-sulfonamido)phenyl]ethynyl}pyridine-2-carboxylic acid] |
| 100 to 1000 | O=C(O)c1ccc(C#Cc2ccccc2NS(=O)(=O)c2cccc3c(Cl)cc(Cl)nc23)cn1 [Compound 314, 5-{2-[2-(2,4-dichloroquinoline-8-sulfonamido)phenyl]ethynyl}pyridine-2-carboxylic acid] |
| 10 to 100 | O=C(O)c1ccc(C#Cc2ccccc2NS(=O)(=O)c2c(Br)ccc3ccc(Cl)nc23)cn1 [Compound 315, 5-{2-[2-(7-bromo-2-chloroquinoline-8-sulfonamido)phenyl]ethynyl}pyridine-2-carboxylic acid] |
| 100 to 1000 | Cc1ccc2cc(Cl)cc(S(=O)(=O)Nc3ccccc3C#Cc3ccc(C(=O)O)nc3)c2n1 [Compound 317, 5-{2-[2-(6-chloro-2-methylquinoline-8-sulfonamido)phenyl]ethynyl}pyridine-2-carboxylic acid] |
| 10 to 100 | O=C(O)c1ccc(C#Cc2ccccc2NS(=O)(=O)c2c(Br)ccc3c(Cl)ccnc23)cn1 [Compound 319, 5-{2-[2-(7-bromo-4-chloroquinoline-8-sulfonamido)phenyl]ethynyl}pyridine-2-carboxylic acid] |
| 10 to 100 | O=C(O)c1ccc(C#Cc2ccccc2NS(=O)(=O)c2c(F)ccc3c(Cl)ccnc23)cn1 [Compound 320, 5-{2-[2-(4-chloro-7-fluoroquinoline-8-sulfonamido)phenyl]ethynyl}pyridine-2-carboxylic acid] |

Reference: patent publication US12351570B2 (MERCK PATENT GMBH, priority 2018, dated 2025)
